Source: PMC12615753, “Glutathione as a taste modulator: molecular mechanisms of interaction with umami and sweet taste receptors” (Food Chemistry: Molecular Sciences, 2025)
Where a chain is given by its changes, count along the chain named.

Assays:
hTAS1R1/rTAS1R3(Mut2) = biological target: T1, hTAS1R1/rTAS1R3(Mut2) (UniProt Q7RTX1+Q923K1, L72W/P67S/S282A/Y281H); test: Calcium assay, mutated rTAS1R3 co-expressed with hTAS1R1; details: for response to the agonist alone: Mut2
T1 sequence (Q7RTX1 21-841): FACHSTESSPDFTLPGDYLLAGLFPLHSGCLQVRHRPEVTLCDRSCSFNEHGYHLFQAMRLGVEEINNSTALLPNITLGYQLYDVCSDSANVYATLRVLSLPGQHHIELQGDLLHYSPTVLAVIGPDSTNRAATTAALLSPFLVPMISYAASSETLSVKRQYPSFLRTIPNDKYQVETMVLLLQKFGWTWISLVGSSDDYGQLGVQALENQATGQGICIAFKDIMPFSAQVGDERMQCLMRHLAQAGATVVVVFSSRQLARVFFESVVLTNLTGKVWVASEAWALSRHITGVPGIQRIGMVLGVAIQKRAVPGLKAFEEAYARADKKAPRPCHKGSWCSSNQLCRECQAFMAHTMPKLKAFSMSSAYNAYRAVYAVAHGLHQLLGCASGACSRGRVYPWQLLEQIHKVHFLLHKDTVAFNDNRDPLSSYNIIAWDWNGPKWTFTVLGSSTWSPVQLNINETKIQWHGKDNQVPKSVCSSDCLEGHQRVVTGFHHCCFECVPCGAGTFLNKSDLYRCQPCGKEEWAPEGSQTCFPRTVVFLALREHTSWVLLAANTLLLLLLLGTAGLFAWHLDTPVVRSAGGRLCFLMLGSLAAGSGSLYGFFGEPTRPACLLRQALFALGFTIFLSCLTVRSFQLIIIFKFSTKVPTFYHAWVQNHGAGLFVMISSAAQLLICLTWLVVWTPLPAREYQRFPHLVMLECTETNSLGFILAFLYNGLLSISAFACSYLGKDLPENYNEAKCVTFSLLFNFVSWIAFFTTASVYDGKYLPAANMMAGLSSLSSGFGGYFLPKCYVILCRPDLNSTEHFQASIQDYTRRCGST
T1 sequence (Q923K1 21-858 P67S/L72W/Y281H/S282A): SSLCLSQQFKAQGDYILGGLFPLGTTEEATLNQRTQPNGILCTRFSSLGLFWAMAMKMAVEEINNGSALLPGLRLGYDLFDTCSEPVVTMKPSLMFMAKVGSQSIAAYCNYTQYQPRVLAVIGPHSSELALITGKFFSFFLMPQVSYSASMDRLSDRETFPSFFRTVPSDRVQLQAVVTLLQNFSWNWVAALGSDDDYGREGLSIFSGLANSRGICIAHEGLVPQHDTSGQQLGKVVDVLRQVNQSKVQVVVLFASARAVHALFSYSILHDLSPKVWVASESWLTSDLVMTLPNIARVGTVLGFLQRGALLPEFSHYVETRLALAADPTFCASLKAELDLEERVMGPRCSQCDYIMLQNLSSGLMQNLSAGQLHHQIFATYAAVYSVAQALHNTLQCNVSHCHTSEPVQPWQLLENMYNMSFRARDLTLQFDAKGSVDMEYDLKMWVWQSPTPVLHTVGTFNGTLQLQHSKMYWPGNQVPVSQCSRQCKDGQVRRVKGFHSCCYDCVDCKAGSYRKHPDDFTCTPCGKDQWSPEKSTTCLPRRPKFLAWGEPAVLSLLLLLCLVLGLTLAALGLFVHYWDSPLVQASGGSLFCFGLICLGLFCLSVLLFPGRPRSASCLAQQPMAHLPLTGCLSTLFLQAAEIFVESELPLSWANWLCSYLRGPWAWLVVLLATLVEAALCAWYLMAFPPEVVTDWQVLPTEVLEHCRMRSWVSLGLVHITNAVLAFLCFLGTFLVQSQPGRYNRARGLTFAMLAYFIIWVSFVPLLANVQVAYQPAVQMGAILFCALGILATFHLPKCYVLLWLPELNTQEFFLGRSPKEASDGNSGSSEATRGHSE
Method: (§1) HEK293T/17 cells (ATCC CRL-11268) were seeded into clear bottom black 96-well plates coated with poly-D-lysine at a density of 32500 cells/well in 100 μL of DMEM containing 4.5 g/L glucose and supplemented with penicillin/streptomycin, 2 mM GlutaMAX and 10 % dialyzed fetal bovine serum. The plates were incubated for 24 h at 37 °C and 7.3 % CO2 in a humidified atmosphere. After incubation, using Fugene® 4 K (0.46 μL/well, Promega, Illkirch, France), the cells were transiently transfected with pcDNA3-hTAS1R1-WT (60 ng/well) or TAS1R1 mutants, pcDNA4-rTAS1R3 (60 ng/well), pcDNA3-Gα15i2 (10 ng/well), and pGP-CMV-GCaMP6s (Addgene #40753; 10 ng/well) as a genetically encoded calcium indicator. Twenty-four hours after transfection, the HEK293T/17 cells were rinsed with 100 μL of C1 buffer (130 mM NaCl, 5 mM KCl, 10 mM HEPES, 2 mM CaCl2, and 5 mM sodium pyruvate, pH 7.4). For each molecule tested, a semi-logarithmic concentration range was created consisting of seven increasing concentrations and a negative control (zero dose) made of buffer C1. Binary mixtures with different molecules were also made to study potential synergy. In this case, the concentration range was tested in C1 buffer containing the other molecules to be tested. The concentration ranges varied depending on the molecule, its solubility, and its effectiveness in activating the receptor. All the solutions were made on the day of the test to prevent any oxidation of the compounds. If needed, the pH of each solution was adjusted by to pH 7.4 by adding NaOH. After 20 s of basal fluorescence calcium measurement, the cells were stimulated via automatic injection of a range of compounds in eight wells, and the signal emission was recorded for an additional 70 s, via a FlexStation 3® fluorometric microplate reader (Molecular Devices, San Jose, CA, USA). As a control, molecules were also tested on mock-transfected cells with the empty vector. The emitted fluorescence was measured at a wavelength of 510 nm after excitation at 488 nm. Each measurement was performed in duplicate on the same plate, and the experiments were carried out at least four times. Kinetic data were acquired via SoftMax Pro 5.4.6 software (Molecular Devices). For each well, the decrease in the raw fluorescence as the relative fluorescence changed was calculated as ΔF/F0. Replicates were averaged for the wells subjected to the same stimuli, the background signal was subtracted, and the fluorescence changes in mock-transfected cells were subtracted. The half-maximal effective concentration (EC50) and maximal signal amplitude (max ∆F/F0) were calculated via non-linear regression of the sigmoidal function four-parameter logistic equation [f(x) = min + (max − min)/(1 + (x/EC50)^nH)] via SigmaPlot 15.0 software (Grafiti LLC, Palo Alto, CA, USA). […] For a clearer understanding of the results, the amplitude values in certain dose-response curves were normalized to max ∆F/F0 = 1, to eliminate the differences in amplitude.
We also selected other residues surrounding the cavity that differed from species to species and were not directly involved in ligand binding but rather in dynamic phenomena resulting in signal transmission, namely, four residues located less deep in the binding cavity that we mutated to their human counterparts (Y281H, S282A, P67S, L72W) (Mut2) (Fig. S3).

hTAS1R1/rTAS1R3(Mut1) = biological target: T2, hTAS1R1/rTAS1R3(Mut1) (UniProt Q7RTX1+Q923K1, A277V/L68N/R278H/S168G/S302A); test: as above
T2 sequence (Q7RTX1 21-841): T1 sequence (Q7RTX1 21-841)
T2 sequence (Q923K1 21-858 L68N/S168G/A277V/R278H/S302A): T1 sequence (Q923K1 21-858 P67S/L72W/Y281H/S282A) with S47P, L48N, W52L, S148G, A257V, R258H, H261Y, A262S, S282A
Method: as §1
We also selected other residues surrounding the cavity that differed from species to species and were not directly involved in ligand binding but rather in dynamic phenomena resulting in signal transmission, namely, four residues located less deep in the binding cavity that we mutated to their human counterparts (Y281H, S282A, P67S, L72W) (Mut2) (Fig. S3). Finally, we targeted positions at the interface between the VFTs of TAS1R1 and TAS1R3. […] A double mutant (E221Q and R173L) (Mut3) was thus created. For each group, we constructed multisite mutants (penta-, quadruple-, or double-mutants) to assess their combined effects efficiently.

SMILES | EC50 (hTAS1R1/rTAS1R3(Mut2)) [µM] | response to the agonist alone (hTAS1R1/rTAS1R3(Mut2)) | EC50 (hTAS1R1/rTAS1R3(Mut1)) [µM] | effect of the added compound on the response to L-Glu (hTAS1R1/rTAS1R3(Mut1); Mut1) | response to the agonist alone (hTAS1R1/rTAS1R3(Mut1); Mut1)
N[C@@H](CCC(=O)N[C@@H](CS)C(=O)NCC(=O)O)C(=O)O [GSH, γ-L-glutamyl-L-cysteinyl-glycine] | 1220 ± 488 | abolished | 9010 ± 697 | increased | reduced
N[C@@H](CCC(=O)O)C(=O)O [L-Glu, L-glutamic acid, reference compound] | – | abolished | – | – | responded
CCCC(CCC)NC(=O)c1ccc2c(c1)OCO2 [S807, N-(heptan-4-yl)benzo[d][1,3]dioxole-5-carboxamide, reference compound] | 1.59 ± 0.27 | severely impaired | 1.69 ± 0.1 | – | unaffected
